Where “and” joins values, the source holds several entries; their conditions need not be identical. Identical values can stand only once. Like-named read-outs stand apart in the source and are kept apart here.
Columns and labels:
[1] = molecular target: T1, androgen receptor (AdEasy+rAR, L929 cells) (Rattus norvegicus, UniProt P15207); assay: L929 Androgen Receptor Functional Assay, Adenovirus Transduction; type: cell-based; conditions: for inhibition at 3 µM: L929, antagonist testing with R1881, 3000 nM; for IC50: antagonist testing with R1881; for % Inhibition, L929 androgen receptor functional assay: antagonist testing with R1881, 3000 nM
T1 construct: expressed in transfected cells; host or cells: L929 cells transduced with adenovirus AdEasy+rAR
T1 sequence (P15207 1-902): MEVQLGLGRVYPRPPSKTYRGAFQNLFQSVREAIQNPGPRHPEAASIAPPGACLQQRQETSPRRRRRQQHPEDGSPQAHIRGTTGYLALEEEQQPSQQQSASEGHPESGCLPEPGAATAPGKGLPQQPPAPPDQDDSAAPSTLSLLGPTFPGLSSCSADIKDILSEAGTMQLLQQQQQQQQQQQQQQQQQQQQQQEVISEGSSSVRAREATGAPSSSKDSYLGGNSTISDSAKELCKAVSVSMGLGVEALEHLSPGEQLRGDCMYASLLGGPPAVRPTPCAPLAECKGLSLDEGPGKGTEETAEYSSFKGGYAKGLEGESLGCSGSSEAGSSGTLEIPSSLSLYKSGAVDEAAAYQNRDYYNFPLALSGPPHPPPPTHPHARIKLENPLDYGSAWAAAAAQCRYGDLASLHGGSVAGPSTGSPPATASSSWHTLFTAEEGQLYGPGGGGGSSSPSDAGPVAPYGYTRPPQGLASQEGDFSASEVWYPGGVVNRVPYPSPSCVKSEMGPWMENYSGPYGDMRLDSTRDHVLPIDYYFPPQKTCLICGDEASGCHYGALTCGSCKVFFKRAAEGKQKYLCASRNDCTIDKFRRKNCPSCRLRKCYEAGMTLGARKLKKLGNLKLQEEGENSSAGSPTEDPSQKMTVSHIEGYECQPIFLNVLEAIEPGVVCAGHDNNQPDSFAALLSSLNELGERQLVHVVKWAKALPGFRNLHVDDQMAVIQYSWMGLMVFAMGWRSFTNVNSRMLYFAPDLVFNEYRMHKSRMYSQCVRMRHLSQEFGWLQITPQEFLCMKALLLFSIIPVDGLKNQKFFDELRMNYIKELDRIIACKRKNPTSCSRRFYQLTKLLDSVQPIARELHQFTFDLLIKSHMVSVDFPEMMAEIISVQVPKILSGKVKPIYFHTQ
In short: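 L929 cells in phenol red-free, charcoal-stripped serum medium transduced with AdEasy+rAR (moi 1:500) and exposed 48 h at 37 °C to compound alone (agonist mode) or with R1881 (antagonist mode; 2.5 nM as the 2.5× dilution).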

[2] = molecular target: T2, androgen receptor (AdEasy+rAR, COS-7 cells) (Rattus norvegicus, UniProt P15207); assay: COS-7 Whole-Cell Androgen Receptor Binding Assay, Adenovirus Transduction; conditions: for inhibition at 3 µM / % Inhibition, COS Binding: concentration of 3000 nM
T2 construct: expressed in transfected cells; host or cells: COS-7 cells transduced with adenovirus AdEasy+rAR
T2 sequence (P15207 1-902): T1 sequence (P15207 1-902)
Description: COS-7 cells were plated in 96-well plates at 20,000 cells per well, in a solution of DMEM/F12 (GIBCO) containing 10% (v/v) charcoal-treated fetal bovine serum (Hyclone) and lacking phenol red. The cells were then incubated overnight at 37° C. in 5% (v/v) humidified CO2.
Test compound solutions were prepared by diluting the test compound in 100% (v/v) DMSO, if necessary.
Next, 1 mL of DMEM/F12 lacking phenol red was pipetted into each of the wells of a 2-mL 96-well assay block. […] The wells were carefully mixed by pipette.
In a 15 mL or 50 mL sterile centrifuge tube, a dilution in DMEM/F12 of the adenovirus AdEasy+rAR at a moi of 1:50 per well was prepared.
The medium was removed from the 96-well plates by inversion and the plates dried very briefly, inverted, on a sterile towel. As soon as possible after medium removal, 40 μL of the diluted test compound was added to each well, in duplicate. […] The plates were then incubated for 48 hours at 37° C. in 5% (v/v) humidified CO2.
The medium was removed from the above incubated plates by inversion and dried. Each well was then washed with 0.35 mL of 1× PBS. The PBS was then removed from the plates by inversion and the plates dried.
To each well was then added 50 μL of 0.5% (v/v) Triton X-100 (Sigma) in 1× PBS and the plates placed on a rotary shaker for 5 min. The contents of each well were then transferred to an OptiPlate-96 (Packard) scintillation plate. To each well was then added 0.2 mL of Microscint-20 (Packard) and the wells counted on a TopCount (Packard).
Percent inhibition was determined by testing dilutions of the test compound (usually duplicates of 10 μM) in the binding assay. Counts per well were measured and percents of inhibition determined. […] Counts per well were measured and IC50s determined by linear regression.

[3] = test system: testosterone-enhanced ventral prostate and seminal vesicle weights; assay: Ventral Prostate and Seminal Vesicle Weight in vivo Assay; design: species or system rat; conditions: immature castrated male Sprague Dawley rats, once daily for five days, usually orally 40 mg/kg, with testosterone propionate 2 mg/kg s.c. Further: key: 'active' if the non weight adjusted prostate weight was ≦40 mg or the % Inhibition prostate weight, body weight adjusted was ≧40% @ 2 mg/day dosage; ID50's, if determined, of ≦15 mg/day also indicated an 'active' compound; listed herein as 'inactive' as they did not meet the specified criteria defined above.
In short: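 Immature castrated male Sprague Dawley rats (~50 g) were dosed once daily for five days with compound, usually orally at 40 mg/kg in cyclodextrin or methylcellulose vehicle. Testosterone propionate was co-dosed subcutaneously at 2 mg/kg. On day six, ventral prostate and seminal vesicle wet weights were measured; activity was judged on prostate weight or body-weight-adjusted % inhibition.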

[4] = read-out: IC50 (nM), COS Binding

SMILES | inhibition at 3 µM [1] | % Activity, L929 androgen receptor functional assay ([1]; agonist testing, 3000 nM) | IC50 [2, 4] | active / inactive: inhibition of testosterone-enhanced prostate weight [3] | IC50 ([2]; IC50 (nM), COS Binding) | inhibition at 3 µM [2] | % Activity, L929 androgen receptor functional assay ([1]; agonist testing, 3000 nM, 3 µM) | % Inhibition, COS Binding ([2]; 3 µM) | IC50 [1] | % Inhibition, COS Binding [2] | EC50 ([1]; agonist testing) | % Activity, L929 androgen receptor functional assay ([1]; agonist testing, @ 8000 nM) | % Inhibition, L929 androgen receptor functional assay ([1]; 3 µM)
CCSCC(C)(O)c1[nH]c2cc(C(F)(F)F)c(C#N)cc2c1C (centres unmarked) [Compound 219] | 103% | −3% | 6.2 nM | inactive | – | – | – | – | – | – | – | – | –
CC(O)(CS(C)(=O)=O)c1cc2cc(Cl)c(C(F)(F)F)cc2n1S(C)(=O)=O (centres unmarked) [Compound 137] | 77% | 0% | – | inactive | > 1500 nM | 73% | – | – | – | – | – | – | –
CCSCC(C)(O)c1cc2cc([N+](=O)[O-])cc(C(F)(F)F)c2[nH]1 (centres unmarked) [Compound 212] | 101% | −3% | 98 nM | active | – | 86% | – | – | – | – | – | – | –
CCSCC(C)(O)c1cc2cc(F)c(C(F)(F)F)cc2[nH]1 (racemic) [Compound 206] | – | – | – | active | – | – | 5% | −40% | – | – | – | – | –
CCC(O)(CSCC(F)(F)F)c1cc2cc(Cl)c(C(F)(F)F)cc2[nH]1 (centres unmarked) [Compound 192] | 89% | 8% | 82 nM | active | – | 86% | – | – | – | – | – | – | –
CCSCC(C)(O)c1cc2cc([N+](=O)[O-])c(C(F)(F)F)cc2n1C (single isomer, unassigned) [Compound 231] | – | – | 665 nM and > 3000 nM | active | – | 73% | 0% and −1% | 78% | 3180 nM | – | – | – | –
CCCCSCC(C)(O)c1cc2cc([N+](=O)[O-])c(C(F)(F)F)cc2[nH]1 (centres unmarked) [Compound 200] | 96% | 1% | – | inactive | – | 97% | – | – | – | – | – | – | –
C[S+]([O-])CCC(C)(O)c1cc2cc([N+](=O)[O-])c(C(F)(F)F)cc2[nH]1 (mixture of isomers) [Compound 50] | – | 2% | – | inactive | – | – | – | – | – | 7% | – | – | –
CC(O)(CSCC(F)(F)F)c1cc2cc(F)c(C(F)(F)F)cc2[nH]1 (centres unmarked) [Compound 189] | 85% | 3% | 280 nM | inactive | – | 100% | – | – | – | – | – | – | –
CN(C)c1ccc(SCC(C)(O)c2cc3cc(Cl)c(C(F)(F)F)cc3[nH]2)cc1 (centres unmarked) [Compound 124] | – | −4% | > 3000 nM | inactive | – | – | – | – | – | – | – | – | –
CN(C)c1ccccc1SCC(C)(O)c1cc2cc(Cl)c(C(F)(F)F)cc2[nH]1 (centres unmarked) [Compound 127] | – | −5% | > 1200 nM | inactive | – | – | – | 41% and 74% | – | – | – | – | –
CC(O)(CSCc1cccs1)c1cc2cc([N+](=O)[O-])c(C(F)(F)F)cc2[nH]1 (centres unmarked) [Compound 197] | -26% | 2% | > 3000 nM | inactive | – | 86% | – | – | – | – | – | – | –
CC(O)(CSCC(F)(F)F)c1cc2cc([N+](=O)[O-])c(C(F)(F)F)cc2[nH]1 (single isomer, unassigned) [Compound 202] | – | – | – | active | – | – | 1% | 50% | – | – | – | – | –
CCC(O)(CS(=O)(=O)CC(F)(F)F)c1cc2cc([N+](=O)[O-])c(C(F)(F)F)cc2[nH]1 (centres unmarked) [Compound 191] | -6% | 2% | 840 nM | active | – | 65% | – | – | – | – | – | – | –
CCSCC(C)(O)c1cc2cc(C#N)c(C(F)(F)F)cc2[nH]1 (single isomer, unassigned) [Compound 217, 2-(2-Ethylsulfanyl-1-hydroxy-1-methyl-ethyl)-6-trifluoromethyl-1H-indole-5-carbonitrile] | 87% | 5% | – | active | – | – | – | 38% and 61% and 69% | 969 nM and 415 nM and 810 nM | – | > 8000 nM | 0 @ 8000 nM % | 80%
CCCS(=O)(=O)CC(C)(O)c1cc2cc([N+](=O)[O-])c(C(F)(F)F)cc2[nH]1 (centres unmarked) [Compound 177] | 89% | 2% | 88 nM | active | – | 90% | – | – | – | – | – | – | –
CC(O)(CSc1ccccc1N)c1cc2cc(Cl)c(C(F)(F)F)cc2[nH]1 (centres unmarked) [Compound 123] | – | −4% | > 3000 nM | inactive | – | – | – | – | – | – | – | 1 @ 8000 nM % | –
CCS(=O)(=O)CC(C)(O)c1[nH]c2cc(C(F)(F)F)c(C#N)cc2c1C (single isomer, unassigned) [Compound 252] | – | – | > 3000 nM | active | – | – | 1% | 68% | 3100 nM | – | – | – | 65%

Source: US7282507B2, “Indole derivatives as selective androgen receptor modulators (SARMS)” (Janssen Pharmaceutica N.V., priority 2004, dated 2007)
